The record followed here is patent US20230159532A1, “PARATHYROID HORMONE (PTH) RECEPTOR ANTAGONISTS AND USES THEREOF” (Crinetics Pharmaceuticals, Inc., priority 2021, published 2023).

The target of the assay is T1, human PTHR1 receptor (Homo sapiens, UniProt Q03431).
T1 construct: purchased Eurofins HTS030M
T1 sequence (Q03431 27-593): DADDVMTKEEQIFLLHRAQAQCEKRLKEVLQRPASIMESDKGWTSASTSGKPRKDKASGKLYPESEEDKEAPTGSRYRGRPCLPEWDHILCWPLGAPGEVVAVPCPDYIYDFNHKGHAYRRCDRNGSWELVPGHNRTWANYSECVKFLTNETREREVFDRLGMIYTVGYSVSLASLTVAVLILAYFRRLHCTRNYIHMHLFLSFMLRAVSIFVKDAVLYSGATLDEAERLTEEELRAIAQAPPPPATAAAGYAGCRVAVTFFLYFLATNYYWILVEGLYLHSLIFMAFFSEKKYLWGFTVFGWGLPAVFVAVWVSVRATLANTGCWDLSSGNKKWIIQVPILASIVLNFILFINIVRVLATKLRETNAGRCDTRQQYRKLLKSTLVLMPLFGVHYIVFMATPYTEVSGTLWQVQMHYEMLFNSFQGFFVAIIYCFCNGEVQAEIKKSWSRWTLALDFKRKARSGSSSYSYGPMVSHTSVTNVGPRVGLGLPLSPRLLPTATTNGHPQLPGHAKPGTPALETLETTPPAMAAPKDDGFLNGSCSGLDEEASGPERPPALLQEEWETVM
The assay can be described thus: Competitive antagonist binding assay for hPTH-R1 (radioactive competition binding, SPA beads). Particulars: human PTHR1 membranes, [125I]-[Nle8,18,Tyr34]-PTH(1-34) 0.2 nM, 90 minutes at room temperature; read-out: hPTHR1 Ki. The gist of the method: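 Displacement of 0.2 nM radioiodinated [Nle8,18,Tyr34]-PTH(1-34) from membrane-bound human PTHR1 measured by scintillation proximity after 90 min at room temperature. Compounds typically 0-10,000 nM final, pH 7.4 HEPES/Mg/Ca buffer with BSA and detergent. Ki calculated from competition data.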
As usually defined, the Ki is a dissociation constant, usually derived from enzyme kinetics or from competition with a known ligand. Take `CCN1C(=O)N(c2ccc(NCCNC3CCOCC3)cc2)c2cc(Cl)ccc2-c2cc(Cl)cnc21` [2-13, 4,13-dichloro-8-ethyl-10-[4-({2-[(oxan-4-yl)amino]ethyl}amino)phenyl]-6,8,10-triazatricyclo[9.4.0.0^2,7]pentadeca-1(11),2(7),3,5,12,14-hexaen-9-one]: the inhibitory constant (Ki) is under 100 nM.
The value for `CCN1C(=O)N(c2ncc(NCCNC3CCOCC3)cc2F)c2cc(Cl)ccc2-c2cc(Cl)cnc21` [2-14, 4,13-dichloro-8-ethyl-10-[3-fluoro-5-({2-[(oxan-4-yl)amino]ethyl}amino)pyridin-2-yl]-6,8,10-triazatricyclo[9.4.0.0^2,7]pentadeca-1(11),2(7),3,5,12,14-hexaen-9-one] was under 100 nM.
In the case of `CCN1C(=O)N(c2c(F)cc(NCCNC)cc2F)c2cc(Cl)ccc2-c2ccc(C)nc21` [3-1, 13-chloro-10-(2,6-difluoro-4-{[2-(methylamino)ethyl]amino}phenyl)-8-ethyl-5-methyl-6,8,10-triazatricyclo[9.4.0.0^2,7]pentadeca-1(11),2(7),3,5,12,14-hexaen-9-one], the Ki was under 100 nM.
The value for `CCN1C(=O)N(c2c(F)cc(NCCNCCO)cc2F)c2cc(Cl)c(C)cc2-c2cccnc21` [3-2, 13-chloro-10-[2,6-difluoro-4-({2-[(2-hydroxyethyl)amino]ethyl}amino)phenyl]-8-ethyl-14-methyl-6,8,10-triazatricyclo[9.4.0.0^2,7]pentadeca-1(11),2(7),3,5,12,14-hexaen-9-one] was under 100 nM; that for `CCN1C(=O)N(c2c(F)cc(NCCNC)cc2F)c2cc(Cl)c(C)cc2-c2cccnc21` [3-3, 13-chloro-10-(2,6-difluoro-4-{[2-(methylamino)ethyl]amino}phenyl)-8-ethyl-14-methyl-6,8,10-triazatricyclo[9.4.0.0^2,7]pentadeca-1(11),2(7),3,5,12,14-hexaen-9-one] was under 100 nM; that for `CCN1C(=O)N(c2c(F)cc(NCCNCCO)cc2F)c2cc(Cl)ccc2-c2c1ncc(Cl)c2C` [3-4, 4,13-dichloro-10-[2,6-difluoro-4-({2-[(2-hydroxyethyl)amino]ethyl}amino)phenyl]-8-ethyl-3-methyl-6,8,10-triazatricyclo[9.4.0.0^2,7]pentadeca-1(11),2(7),3,5,12,14-hexaen-9-one] was under 100 nM.
The value for `CCN1C(=O)N(c2c(F)cc(NCCNC)cc2F)c2cc(Cl)ccc2-c2c1ncc(Cl)c2C` [3-5, 4,13-dichloro-10-(2,6-difluoro-4-{[2-(methylamino)ethyl]amino}phenyl)-8-ethyl-3-methyl-6,8,10-triazatricyclo[9.4.0.0^2,7]pentadeca-1(11),2(7),3,5,12,14-hexaen-9-one] was under 100 nM.
`CCN1C(=O)N(c2c(F)cc(NCCNCCO)cc2F)c2cc(Cl)ccc2-c2c1ncc(F)c2C` [3-6, 13-chloro-10-[2,6-difluoro-4-({2-[(2-hydroxyethyl)amino]ethyl}amino)phenyl]-8-ethyl-4-fluoro-3-methyl-6,8,10-triazatricyclo[9.4.0.0^2,7]pentadeca-1(11),2(7),3,5,12,14-hexaen-9-one]: the Ki is under 100 nM.
For `CCN1C(=O)N(c2c(F)cc(NCCNC)cc2F)c2cc(Cl)ccc2-c2c1ncc(F)c2C` [3-7, 13-chloro-10-(2,6-difluoro-4-{[2-(methylamino)ethyl]amino}phenyl)-8-ethyl-4-fluoro-3-methyl-6,8,10-triazatricyclo[9.4.0.0^2,7]pentadeca-1(11),2(7),3,5,12,14-hexaen-9-one], the Ki was under 100 nM.
As for `CCN1C(=O)N(c2c(F)cc(NCCN)cc2F)c2cc(Cl)ccc2-c2c1ncc(Cl)c2C` [3-8, 10-{4-[(2-aminoethyl)amino]-2,6-difluorophenyl}-4,13-dichloro-8-ethyl-3-methyl-6,8,10-triazatricyclo[9.4.0.0^2,7]pentadeca-1(11),2(7),3,5,12,14-hexaen-9-one], the Ki is 100 to 1000 nM.
The value for `CCN1C(=O)N(c2c(F)cc(NCCNC)cc2F)c2c(ccc(Cl)c2F)-c2cc(Cl)cnc21` [3-9, 4,13-dichloro-10-(2,6-difluoro-4-{[2-(methylamino)ethyl]amino}phenyl)-8-ethyl-12-fluoro-6,8,10-triazatricyclo[9.4.0.0^2,7]pentadeca-1(11),2(7),3,5,12,14-hexaen-9-one] was under 100 nM.
With `CCN1C(=O)N(c2c(F)cc(NCCNCCO)cc2F)c2c(ccc(Cl)c2F)-c2cc(Cl)cnc21` [3-10, 4,13-dichloro-10-[2,6-difluoro-4-({2-[(2-hydroxyethyl)amino]ethyl}amino)phenyl]-8-ethyl-12-fluoro-6,8,10-triazatricyclo[9.4.0.0^2,7]pentadeca-1(11),2(7),3,5,12,14-hexaen-9-one], the inhibitory constant (Ki) was under 100 nM.
Regarding `CCN1C(=O)N(c2c(F)cc(NCCNCCCC(=O)O)cc2F)c2c(ccc(Cl)c2F)-c2cc(Cl)cnc21` [3-11, 4-({2-[(4-{4,13-dichloro-8-ethyl-12-fluoro-9-oxo-6,8,10-triazatricyclo[9.4.0.0^2,7]pentadeca-1(11),2(7),3,5,12,14-hexaen-10-yl}-3,5-difluorophenyl)amino]ethyl}amino)butanoic acid], the Ki is under 100 nM.
As for `CCN1C(=O)N(c2c(F)cc(NCCNCCO)cc2F)c2cc(C#N)ncc2-c2cc(F)cnc21` [3-12, 8-[2,6-difluoro-4-({2-[(2-hydroxyethyl)amino]ethyl}amino)phenyl]-10-ethyl-14-fluoro-9-oxo-4,8,10,12-tetraazatricyclo[9.4.0.0^2,7]pentadeca-1(11),2(7),3,5,12,14-hexaene-5-carbonitrile], the Ki is under 100 nM.
The value for `CCN1C(=O)N(c2c(F)cc(NCCNCCO)cc2F)c2cc(C#N)cnc2-c2cc(F)cnc21` [3-13, 8-[2,6-difluoro-4-({2-[(2-hydroxyethyl)amino]ethyl}amino)phenyl]-10-ethyl-14-fluoro-9-oxo-3,8,10,12-tetraazatricyclo[9.4.0.0^2,7]pentadeca-1(11),2(7),3,5,12,14-hexaene-5-carbonitrile] was under 100 nM.
As to `CCN1C(=O)N(c2c(F)cc(NCCNCCO)cc2F)c2nc(C#N)ccc2-c2cc(F)cnc21` [3-14, 8-[2,6-difluoro-4-({2-[(2-hydroxyethyl)amino]ethyl}amino)phenyl]-10-ethyl-14-fluoro-9-oxo-6,8,10,12-tetraazatricyclo[9.4.0.0^2,7]pentadeca-1(11),2(7),3,5,12,14-hexaene-5-carbonitrile], the Ki was under 100 nM.
For the compound `CCN1C(=O)N(c2c(F)cc(NCCNCCO)cc2F)c2cc(Cl)ccc2-c2nc(C#N)ccc21` [3-15, 13-chloro-10-[2,6-difluoro-4-({2-[(2-hydroxyethyl)amino]ethyl}amino)phenyl]-8-ethyl-9-oxo-3,8,10-triazatricyclo[9.4.0.0^2,7]pentadeca-1(11),2(7),3,5,12,14-hexaene-4-carbonitrile], the Ki lay within 1000 to 10000 nM.
Take `CCN1C(=O)N(c2c(F)cc(NCCNC)cc2F)c2cc(Cl)ccc2-c2nc(C#N)ccc21` [3-16, 13-chloro-10-(2,6-difluoro-4-{[2-(methylamino)ethyl]amino}phenyl)-8-ethyl-9-oxo-3,8,10-triazatricyclo[9.4.0.0^2,7]pentadeca-1(11),2(7),3,5,12,14-hexaene-4-carbonitrile]: the Ki lay within 1000 to 10000 nM.
The value for `CCN1C(=O)N(c2c(F)cc(NCCNC3CCOCC3)cc2F)c2cc(Cl)ccc2-c2nc(C#N)ccc21` [3-17, 13-chloro-10-[2,6-difluoro-4-({2-[(oxan-4-yl)amino]ethyl}amino)phenyl]-8-ethyl-9-oxo-3,8,10-triazatricyclo[9.4.0.0^2,7]pentadeca-1(11),2(7),3,5,12,14-hexaene-4-carbonitrile] was 1000 to 10000 nM.
As to `CCN1C(=O)N(c2c(F)cc(NCCNCCO)cc2F)c2cc(C#N)ccc2-c2cc(F)ccc21` [3-18, 8-[2,6-difluoro-4-({2-[(2-hydroxyethyl)amino]ethyl}amino)phenyl]-10-ethyl-14-fluoro-9-oxo-8,10-diazatricyclo[9.4.0.0^2,7]pentadeca-1(11),2(7),3,5,12,14-hexaene-5-carbonitrile], the Ki is under 100 nM.
With `CCN1C(=O)N(c2c(F)cc(NCCNC)cc2F)c2cc(C#N)ccc2-c2cc(F)ccc21` [3-19, 8-(2,6-difluoro-4-{[2-(methylamino)ethyl]amino}phenyl)-10-ethyl-14-fluoro-9-oxo-8,10-diazatricyclo[9.4.0.0^2,7]pentadeca-1(11),2(7),3,5,12,14-hexaene-5-carbonitrile], the Ki was under 100 nM.
The value for `CCN1C(=O)N(c2c(F)cc(NCCNCCO)cc2F)c2cc(C#N)c(C)cc2-c2cc(F)cnc21` [3-20, 10-[2,6-difluoro-4-({2-[(2-hydroxyethyl)amino]ethyl}amino)phenyl]-8-ethyl-4-fluoro-14-methyl-9-oxo-6,8,10-triazatricyclo[9.4.0.0^2,7]pentadeca-1(11),2(7),3,5,12,14-hexaene-13-carbonitrile] was under 100 nM.
